≈ marks a conversion by molar mass, not a printed value. Entries after “also recorded” stand apart in the source; their conditions may differ.
Key:
[1] = test system: A-375 malignant melanoma cells; test: In vitro antitumor activity, A-375 melanoma; type: cell-based, human; settings: Homo sapiens, read-out: IC50
Text: 1) in vitro tumor cell viability assays using MTT and SRB dye reaction endpoints.
Sulforhodamine B (SRB) Assay for Adherent Tumor Cells
Sulforhodamine B (SRB) is a protein binding aminoxanthene dye with two sulfonic acid groups. (Lillie, R. D., H. J. Conn's Biological Stains, 9th Ed., Baltimore; Williams & Wilkins, 1977.) It quantitates whole cell protein content by the intensity of dye staining and relates this to the number of viable cells. […] The SRB assay is used for cells which normally adhere to surfaces (in this case plastic culture flasks or petri dishes) as part of their requirement for growth and division in vitro. The SRB assay is currently used by the National Cancer Institute in the anticancer drug screening program. (Skehan, et al., J Natl Cancer Inst 82:1107-1112, 1990; Rubinstein, et al., J Natl Cancer Inst 82:1113-1118, 1990.) Methodologic comparisons have shown that SRB results are linear for the number of tumor cells over a 100-fold range, and for protein content determined by a modified Lowry method or Standard Bradford (Bradford, M., Anal Biochem 72:248-254, 1976) methods. […] (Lillie, R. D., H. J. Conn's Biological Stains, 9th Ed., Baltimore; Williams & Wilkins, 1977.)
Cell cultures of 10^3 -10^7 cells growing in 96-well plastic microtiter plates are fixed with 50% trichloroacetic acid (TCA) for 30 minutes at 4° C. The cells are then stained with 0.4% (w/v) sulforhodamine B (SRB) dissolved in 1% acetic acid. Unbound dye is removed by 4 washes with 1% acetic acid, and protein-bound dye is extracted with 10 mM unbuffered Tris® base [tris(hydroxymethyl)aminomethane]. The optical density (OD) of this extracted solution is measured at […] in a microtiter plate ultraviolet absorbance detector. Cell viability is expressed as percent of control by dividing the optical densities and multiplying the result by 100.
(§1) Microculture Tetrazolium (MTT) Assay for Tumor Cells
(§2) Tumors are disaggregated into single cell suspensions using mechanical, hypoosmotic, and/or enzymatic (trypsin) methods. The cells are plated at a concentration of 3-5×10^4 per […] well into plastic 96-well plates. Growth medium containing 5-10% (vol/vol) heat-inactivated fetal bovine serum and penicillin/streptomycin (both […]) are added prior to incubation at 37° C. for 6 days. Afterwards the medium containing the drug is removed, the cells are centrifuged in fresh medium or phosphate-buffered saline (pH 7.4). A tetrazolium dye, […]-2,5-diphenyl tetrazolium (MTT), is then added. (Mossman, T., J Immunol 65:55-63, 1983.) This dye forms a colored formazan product upon activation by mitochondrial reductases in viable cells. Typically, the formazan product is solubilized in acid-propanol or DMSO. The intensity of the color is proportional to viable cell numbers and this is quantitated by spectrophotometric absorbance at 570 nm on a micro ELISA plate reader. The results are calibrated in % control absorbance from untreated tumor cells. (Alley, et al., Cancer Res 48:589-601, 1988.)
Table 3 gives the potencies of the new aziridine-1-carboxamides in a panel of human and murine tumor cells in culture. The tumor cell lines in this table are selected to represent a range of histological and growth phenotypes. Their characteristics are described below.
4.0 The Human A-375 Malignant Melanoma Cell Line was also developed by Girard, et al. (Girard, et al., J Natl Cancer Inst 51(5):1417-1423, 1973) from a human with advanced melanoma. The modal chromosome number is 67 and it has a low plating (colony forming) efficiency of 0.7% when grown on agar. These cells also form rapidly growing tumors when injected subcutaneously into immunodeficient athymic (nu/nu) mice. (Girard, et al., J Natl Cancer Inst 51(5):1417-1423, 1973.) These cells are also used in the NCI drug screening panel. (Skehan, et al., J Natl Cancer Inst 82:1107-1112, 1990.)

8226/S myeloma cells = test: MTT growth inhibition, parental 8226 myeloma cells; type: cell-based, human; settings: for IC50: Homo sapiens, Table 5, Sensitive (parental) 8226, read-out: IC50
Protocol: as §1, §2
(§3) The following unpublished studies were performed in vitro to develop and characterize a human myeloma cell line with resistance to imexon-induced cytotoxicity. The original (parental) 8226 cell line was developed by Matsuoka, et al. (Matsuoka, et al., Proc Soc Exp Biol Med 125:1246-1250, 1967). It is a lymphoblastoid cell line which stains for lambda light immunoglobulin production. It grows in vitro in suspension culture (non-adherent) and forms tumors when injected into SCID mice. (Skehan, et al., J Natl Cancer Inst 82:1107-1112, 1990.)
(§4) One exciting feature of our novel compounds is, that they work on imexon-resistant cells. An imexon-resistant 8226 myeloma cell line was selected by continuously exposing cells to gradually increasing concentrations of imexon up to 3.25 mg/mL. This cell line has slightly longer cell doubling time than 8226 sensitive cells (24 vs 20 hours). […] The dose response curve for imexon continuous exposure was determined using MTT assay. Each data point represents the mean of three experiments performed in 8 replicates.
(§5) We compared IC50 concentrations and there is a 4-fold resistance observed for the 8226/I-R cell line when the cells were continuously exposed to imexon for […] at 37° C. The degree of resistance was relatively unstable in the absence of the drug, with the resistant cells losing substantial resistance when maintained in imexon-free medium for 20 weeks (FIG. 2).
(§6) IC50 was measured by MTT assay. IC50 refer to the concentration by drug that results in 50% growth inhibition. A minimum of 2 assays were performed for each drug following 250 mg/mL imexon is equivalent to 6.5 cGy radiation in sensitive cells.
(§7) Using the colorimetric microculture tetrazolium (MTT) assay, imexon and 25-related analogs were studied for tumor growth inhibition in vitro. Imexon-induced DNA single strand breaks were assessed by alkaline elution. Cells were exposed to imexon for 1 hour prior to start of experiment. The fraction of ^14 C-labeled DNA retained on the filter is plotted against the time of elution. The cells included parental 8226 myeloma cells and the 8226 imexon-resistant cells exposed to drug (imexon or analog) continuously for 10 days at 37° C. At the end of the exposure period, the cells were analyzed for viability using the formazan-forming tetrazolium dye (MTT) assay.

8226/I-R myeloma cells = test: MTT growth inhibition, imexon-resistant 8226 myeloma cells; type: cell-based, human; settings: for Cross-resistance with imexon: 8226 imexon-resistant vs parental; for IC50: Homo sapiens, imexon-resistant 8226, read-out: IC50; for IC50 / Fold Resistance of IC50 R/IC50 's: Table 5; for Fold Resistance of IC50 R/IC50 's: imexon-resistant vs sensitive 8226
Protocol: as §1, §2, §3, §4, §5, §6, §7

[2] = test system: L-1210 MDR leukemia cells; test: MTT growth inhibition, multidrug-resistant L-1210 leukemia cells; type: cell-based, mouse; settings: for Fold Resistance of IC50 's (MDR/S): L-1210 MDR vs sensitive, 11520 min; for IC50: Mus musculus, L1210, 192 h, MDR L-1210, drug continuously present 8 days, read-out: IC50
Protocol: as §2
In addition, the imexon analogs have also been tested in a multidrug-resistant (MDR) mouse L-1210 leukemia cell line.
L-1210 MDR Cells represent a multidrug-resistant cell line developed for resistance to the alkylating agent mitomycin C. (Dorr, et al., Biochem Pharmacol 36(19):3115-3120, 1987.) This cell line has the same general growth characteristics of the parental line, but is cross-resistant to numerous natural-product based anticancer agents. This includes anthracyclines such as doxorubicin (Adriamycin®) and vinca alkaloids such as vincristine or vinblastine.
*Drug continuously present for 8 days; IC50 measured by MTT dye

SMILES | IC50 [1] | IC50 (8226/S myeloma cells) | Cross-resistance with imexon (8226/I-R myeloma cells) | IC50 (8226/I-R myeloma cells) | Fold Resistance of IC50 R/IC50 's (8226/I-R myeloma cells) | Fold Resistance of IC50 's (MDR/S) [2] | IC50 [2] | Enhanced potency: decrease in IC50 against myeloma cell growth (8226/S myeloma cells; compared with imexon) | Potency relative to imexon (8226/S myeloma cells; myeloma cells)
CNC(=O)N1CC1C#N (centres unmarked) [AMP 403, 2-Cyanoaziridine-1-(N-methyl)carboxamide] | 2.1 µg/mL (≈ 16.8 µM) | 3.3 µg/mL (≈ 26.4 µM) | lack of significant (>50% IC50 change) cross-resistance with imexon | 3.3 µg/mL (≈ 26.4 µM) | 1.0 | 2.5 | 2.7 µg/mL (≈ 21.6 µM) | – | –
N#CC1CN1C(=O)Nc1ccccc1 (centres unmarked) [AMP 404, 2-Cyanoaziridine-1-(N-phenyl)carboxamide] | 2.1 µg/mL (≈ 11.2 µM) | 1 µg/mL (≈ 5.34 µM) | lack of significant (>50% IC50 change) cross-resistance with imexon | 1.5 µg/mL (≈ 8.01 µM) | 1.5 | 10.5 | 2.1 µg/mL (≈ 11.2 µM) | – | –
CCNC(=O)N1CC1C#N (centres unmarked) [AMP 406, 2-Cyanoaziridine-1-(N-ethyl)carboxamide] | 5 µg/mL (≈ 35.9 µM) | 3.1 µg/mL (≈ 22.3 µM) | – | 3.6 µg/mL (≈ 25.9 µM) | 1.2 | 1.0 | 2 µg/mL (≈ 14.4 µM) | – | –
N#CC1CN1C(=O)Nc1ccc(Cl)cc1Cl (centres unmarked) [AMP 407, 2-Cyanoaziridine-1-[N-(2,4-dichlorophenyl)]carboxamide] | 2 µg/mL (≈ 7.81 µM) | 1.2 µg/mL (≈ 4.69 µM) | – | 2.4 µg/mL (≈ 9.37 µM) | 2.0 | 0.16 | 8.4 µg/mL (≈ 32.8 µM) | > 40% | –
CC(C)(C)NC(=O)N1CC1C#N (centres unmarked) [AMP 410, 2-Cyanoaziridine-1-(N-t-butyl)carboxamide] | 69.9 µg/mL (≈ 418 µM) | 20 µg/mL (≈ 120 µM) | – | 36 µg/mL (≈ 215 µM) | 1.8 | 1.4 | 30.7 µg/mL (≈ 184 µM) | – | –
N#CC1CN1C(=O)NCc1ccccc1 (centres unmarked) [AMP 412, 2-Cyanoaziridine-1-(N-benzyl)carboxamide] | 2.2 µg/mL (≈ 10.9 µM) | 1.8 µg/mL (≈ 8.95 µM) | lack of significant (>50% IC50 change) cross-resistance with imexon; also recorded: no significant cross resistance | 2.2 µg/mL (≈ 10.9 µM) | 1.2 | 2.6 | 2.1 µg/mL (≈ 10.4 µM) | – | roughly equal potency to imexon

— patent US6297230A, “Cyanoaziridines for treating cancer” (priority 2000, dated 2001)
